This is an account of results in article PMC6353901, “Systematic characterization of position one variants within the lantibiotic nisin” (Scientific Reports, 2019).

The subject of one series is NisP. Kind of series: Leader peptide cleavage of pre-nisin variants by NisP (RP-HPLC). To be noted: in vitro cleavage of the leader peptide from purified pre-nisin (variant) by purified secreted NisP, overnight at 8 °C, integration of leader peptide peaks. Format: biochemical, Lactococcus lactis. From the text:
Step IV concerns leader peptide cleavage and thereby activation of the purified pre-nisin variants. Here, we used the secreted variant of the natural leader peptidase NisP, by which the leader peptide is cleaved in vitro and the cleavage efficiency (%) can be calculated as recently shown. We used an RP-HPLC set-up to monitor product formation, in which the appearance of the leader peptide in the chromatograms was used to determine the concentration of activated nisin (Supplementary Fig. S3). […] The nisin core peptide eluted at a later retention time of approximately 23 min (Supplementary Fig. S3). […] However, in the case of the I1 mutants I1A, I1G, I1T, I1S, I1K, I1R, I1H, I1Q, I1E, I1N and I1D) the formation of a core peptide peak in terms of a new and separated peak in the chromatogram was not observed (Supplementary Fig. S4). Rather, the peaks with a retention time between 18–21 min contained both species, the cleaved and non-cleaved lantibiotic, and can therefore not be deconvoluted for proper determination of the amount of activated nisin. […] The concentration was calculated based on a standard calibration curve (Supplementary Fig. S5), where we precisely determined the concentration of the activated nisin or I1 mutants. We used this concentration determination instead of the colorimetric protein concentration determination as for example Bradford or the BCA-assay since the latter two assays cannot differentiate between the activated and non-activated form of the secreted variants. Since nisin is not active unless the leader is cleaved off, the determination of the area of the leader peak to calculate the amount of the activated lantibiotic directly relates to the antimicrobial activity without need to further purify the peptide after cleavage.
All I1 mutations were subjected to NisP cleavage and most of the variants were cleaved, but a strong influence of the nature of the I1 substitutions with respect to cleavage efficiency was observed (Supplementary Fig. S6). The cleavage efficiency for wild type pre-nisin A was 94.3 ± 1.7% but lower for the mutants I1M, I1L, I1A and I1V (72.3 ± 1.4%, 72.4 ± 1.3%, 81.0 ± 1.8% and 58.1± 2.8%, respectively). […] This holds especially in those cases, where the amino acid at position one was exchanged to a charged amino acid (e.g. I1K 9.2 ± 1.3%; I1E 9.5 ± 0.7%) or contained a bulky hydrophobic side chain (e.g. I1F 12.9 ± 0.8%; I1W 5.7 ± 0.2%; I1Y 22.6 ± 2.3%) (Supplementary Fig. S6). […] Even after an extensive prolongation of the incubation time, no leader peptide peak was detected in the RP-HPLC chromatogram (Supplementary Fig. S4). It is important to stress in this context that the cleavage efficiencies cannot be determined from Tricine-SDS gels (20%). Here, the leader peptide as well as the core peptide would co-migrate, which obviously will falsify the staining results.
Pre-nisin and its variants were expressed and purified as previously described[41],[49],[69]. The purity of pre-nisin and its variants was controlled by Tricine-SDS-PAGE (20%)[70]. The activation of all variants was performed by NisP cleavage overnight at 8 °C. Pre-nisin cleavage and its variants was monitored by RP-HPLC[49],[69].
Pre-nisin and the activated nisin variants were analysed by RP-HPLC (Agilent Technologies 1260 Infinity II) with a LiChrospher WP 300 RP-18 end-capped column and an acetonitrile/water solvent system. The cleavage efficiency and the concentration of active lantibiotic was calculated as described previously[49],[69].

The conditions of series [1]: pre-lantibiotic in contrast to nisin; cited from earlier work. The protocol:
As an advantage any lantibiotic can be produced as a pre-lantibiotic. […] Normally, we observed yields for the pre-nisin and its variants of 3–6 mg per liter cell culture supernatant after purificatio ...

Ends that are not written are not given here.

Take “wild type pre-nisin A: leader-containing, fully modified precursor of nisin A, not yet activated by NisP (MSTKDFNLDLVSVSKKDSGASPRITSISLCTPGCKTGALMGCNMKTATCHCSIHVSK; thioether (positions not given here); not fully specified (some residues, bridges); also: fully post-translationally modified, places not given here; UniProt P13068 1-57, looked up) [reference compound]”: the “cleavage efficiency by NisP” value with NisP was 94.3 ± 1.7%. For the same compound, in series [1], the pH stability entry is listed as “higher pH stability”. Consider `C=C(NC(=O)[C@@H](NC(=O)[C@H](Cc1c[nH]cn1)NC(=O)[C@@H](NC(=O)[C@H](CO)NC(=O)[C@@H]1CS[C@@H](C)[C@H]2NC(=O)[C@H](C)NC(=O)[C@H](NC(=O)[C@H](CCCCN)NC(=O)[C@H](CCSC)NC(=O)[C@H](CC(N)=O)NC(=O)[C@@H]3CS[C@@H](C)[C@@H](NC(=O)[C@H](CCCCN)NC(=O)[C@@H]4CS[C@@H](C)[C@@H](NC(=O)[C@@H]5CSC[C@@H](NC(=O)/C(=C/C)NC(=O)[C@@H](N)CCCCN)C(=O)N[C@@H]([C@@H](C)CC)C(=O)NC(=C)C(=O)N[C@@H](CC(C)C)C(=O)N5)C(=O)N5CCC[C@H]5C(=O)NCC(=O)N4)C(=O)NCC(=O)N[C@@H](C)C(=O)N[C@@H](CC(C)C)C(=O)N[C@@H](CCSC)C(=O)NCC(=O)N3)[C@H](C)SC[C@H](NC2=O)C(=O)N[C@@H](Cc2c[nH]cn2)C(=O)N1)[C@@H](C)CC)C(C)C)C(=O)N[C@@H](CCCCN)C(=O)O` [I1K], for which the “cleavage efficiency by NisP” value in the series with NisP worked out at 9.2 ± 1.3%.

As for `C=C(NC(=O)[C@@H](NC(=O)[C@H](Cc1c[nH]cn1)NC(=O)[C@@H](NC(=O)[C@H](CO)NC(=O)[C@@H]1CS[C@@H](C)[C@H]2NC(=O)[C@H](C)NC(=O)[C@H](NC(=O)[C@H](CCCCN)NC(=O)[C@H](CCSC)NC(=O)[C@H](CC(N)=O)NC(=O)[C@@H]3CS[C@@H](C)[C@@H](NC(=O)[C@H](CCCCN)NC(=O)[C@@H]4CS[C@@H](C)[C@@H](NC(=O)[C@@H]5CSC[C@@H](NC(=O)/C(=C/C)NC(=O)[C@@H](N)CCC(=O)O)C(=O)N[C@@H]([C@@H](C)CC)C(=O)NC(=C)C(=O)N[C@@H](CC(C)C)C(=O)N5)C(=O)N5CCC[C@H]5C(=O)NCC(=O)N4)C(=O)NCC(=O)N[C@@H](C)C(=O)N[C@@H](CC(C)C)C(=O)N[C@@H](CCSC)C(=O)NCC(=O)N3)[C@H](C)SC[C@H](NC2=O)C(=O)N[C@@H](Cc2c[nH]cn2)C(=O)N1)[C@@H](C)CC)C(C)C)C(=O)N[C@@H](CCCCN)C(=O)O` [I1E], in the series with NisP, the “cleavage efficiency by NisP” value was found to be 9.5 ± 0.7%.
